Experimental data published in patent US20240360116A1, “BICYCLIC DERIVATIVES” (ELANCO TIERGESUNDHEIT AG, priority 2020, published 2024).
“And” between values parts separate entries of the source, which are not always exact repeats. Identical values can stand only once.

Assays:
D. immitis Slo-1 = D. immitis Slo-1 (Dirofilaria immitis, UniProt I0DFK5); test: In Vitro Assay 2: D. immitis Slo-1 recombinant CHO cell line, membrane potential; assay type: cell-based; conditions: EC50, CHO cells expressing D. immitis Slo-1, voltage sensitive dye, FLIPR Tetra, 70 mM KCl
[1] = test system: Dirofilaria immitis third-stage larvae; test: In Vitro Assay 4: Dirofilaria immitis (DIROIM L4); conditions: 72 h, read-out: EC50 (reduction of motility)
[2] = test system: Adult Nippostrongylus brasiliensis; test: In Vitro Assay 5: Nippostrongylus brasiliensis (NIPOBR), acetylcholine esterase readout; conditions: adult worms, tested at 10, 1 and 0.1 ppm, vs negative control
Procedure: Adult Nippostrongylus brasiliensis were washed with saline buffer containing 100 U/ml penicillin, 0.1 mg/ml streptomycin and 2.5 μg/ml amphotericin B. Test compounds were dissolved in DMSO and worms were incubated in medium in a final concentration of 10 μg/ml (10 ppm), 1 μg/ml (1 ppm) and 0.1 μg/ml (0.1 ppm) respectively. An aliquot of the medium was used to determine the acetylcholine esterase activity in comparison to a negative control. The principle of measuring acetylcholine esterase as readout for anthelmintic activity was described in Rapson et al (1986) and Rapson et al (1987).
Based on the evaluation of a wide concentration range, concentration-response curves as well as EC50-values were calculated.

[3] = test system: Dirofilaria immitis microfilariae; test: In Vitro Assay 3: Dirofilaria immitis microfilariae (DIROIM L1); conditions: 72 h, read-out: EC50 (reduction of motility)

D. immitis Slo-1, sequence (I0DFK5 1-1119): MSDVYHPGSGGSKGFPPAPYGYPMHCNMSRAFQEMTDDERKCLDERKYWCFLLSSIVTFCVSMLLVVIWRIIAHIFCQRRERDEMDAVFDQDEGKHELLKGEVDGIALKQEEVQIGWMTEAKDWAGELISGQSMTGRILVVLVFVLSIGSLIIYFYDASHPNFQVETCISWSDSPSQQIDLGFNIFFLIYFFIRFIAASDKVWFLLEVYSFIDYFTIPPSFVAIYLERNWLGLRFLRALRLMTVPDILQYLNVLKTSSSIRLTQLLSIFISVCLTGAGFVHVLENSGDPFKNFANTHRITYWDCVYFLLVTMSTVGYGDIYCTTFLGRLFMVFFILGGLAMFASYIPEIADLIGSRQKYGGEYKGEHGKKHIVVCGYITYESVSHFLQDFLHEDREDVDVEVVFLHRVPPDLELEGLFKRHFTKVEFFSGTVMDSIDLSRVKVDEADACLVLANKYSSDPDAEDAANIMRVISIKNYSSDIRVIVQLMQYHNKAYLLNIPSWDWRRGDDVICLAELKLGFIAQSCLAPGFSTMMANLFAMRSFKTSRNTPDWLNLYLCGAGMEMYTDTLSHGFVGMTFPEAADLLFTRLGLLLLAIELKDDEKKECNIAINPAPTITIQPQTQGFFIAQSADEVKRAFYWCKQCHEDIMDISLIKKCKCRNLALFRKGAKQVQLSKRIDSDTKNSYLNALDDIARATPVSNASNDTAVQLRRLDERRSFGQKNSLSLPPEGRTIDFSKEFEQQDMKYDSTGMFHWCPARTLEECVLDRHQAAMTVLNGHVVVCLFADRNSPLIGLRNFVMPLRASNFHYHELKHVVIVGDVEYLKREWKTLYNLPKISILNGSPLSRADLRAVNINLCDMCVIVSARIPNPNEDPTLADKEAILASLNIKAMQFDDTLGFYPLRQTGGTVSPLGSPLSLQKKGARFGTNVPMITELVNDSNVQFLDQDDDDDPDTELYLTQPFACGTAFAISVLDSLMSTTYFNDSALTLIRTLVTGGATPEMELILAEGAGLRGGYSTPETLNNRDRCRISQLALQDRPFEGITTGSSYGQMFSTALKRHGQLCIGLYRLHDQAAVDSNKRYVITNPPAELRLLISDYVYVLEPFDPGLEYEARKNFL

O=C(NN1CCOc2ccccc21)c1cnc2c(-c3cc(F)cc(F)c3F)c(F)ccc2c1N1C[C@@H](F)[C@@H](F)C1 (single isomer, unassigned) [Example 5.89, 4-(3,4-difluoropyrrolidin-1-yl)-N-(2,3-dihydro-1,4-benzoxazin-4-yl)-7-fluoro-8-(2,3,5-trifluorophenyl)quinoline-3-carboxamide]
EC50 (D. immitis Slo-1): < 100 nM | EC50 [1]: < 0.1 µg/mL | EC50 [2]: < 0.1 µg/mL

O=C(NN1CCOc2ccccc21)c1cnc2c(-c3cc(C(F)(F)F)cc(F)c3F)c(F)ccc2c1N1CCOCC1 [Example 5.94, 8-(2,3-difluoro-5-(trifluoromethyl)phenyl)-N-(2,3-dihydro-4H-benzo[b][1,4]oxazin-4-yl)-7-fluoro-4-morpholinoquinoline-3-carboxamide]
EC50 (D. immitis Slo-1): < 100 nM

O=C(NN1C(=O)COc2ccccc21)c1cnc2c(-c3cc(F)cc(F)c3F)cccc2c1N1CCOCC1 [Example 5.109, 4-morpholino-N-(3-oxo-2,3-dihydro-4H-benzo[b][1,4]oxazin-4-yl)-8-(2,3,5-trifluorophenyl)quinoline-3-carboxamide]
EC50 (D. immitis Slo-1): 100 to 1000 nM

O=C(NN1CCOc2ccccc21)c1cnc2c(-c3cc(F)cc(F)c3F)c(F)c(F)cc2c1N1CCOCC1 [Example 5.105, N-(2,3-dihydro-4H-benzo[b][1,4]oxazin-4-yl)-6,7-difluoro-4-morpholino-8-(2,3,5-trifluorophenyl)quinoline-3-carboxamide]
EC50 (D. immitis Slo-1): < 100 nM

O=C(NN1CCOc2ccc(F)cc21)c1cnc2c(-c3cc(F)cc(F)c3F)c(F)ccc2c1C1CCOC1 (stereo not shown) [Example 5.97, 7-fluoro-N-(6-fluoro-2,3-dihydro-4H-benzo[b][1,4]oxazin-4-yl)-4-(tetrahydrofuran-3-yl)-8-(2,3,5-trifluorophenyl)quinoline-3-carboxamide]
EC50 (D. immitis Slo-1): < 100 nM

C=C(C)c1c(C(=O)NN2CCOc3ccc(F)cc32)cnc2c(-c3cc(F)cc(F)c3F)c(F)ccc12 [Example 5.99, 7-fluoro-N-(6-fluoro-2,3-dihydro-4H-benzo[b][1,4]oxazin-4-yl)-4-(prop-1-en-2-yl)-8-(2,3,5-trifluorophenyl)quinoline-3-carboxamide]
EC50 (D. immitis Slo-1): 100 to 1000 nM

O=C(NN1CCOc2ccccc21)c1cnc2c(-c3cc(C(F)(F)F)cc(F)c3F)c(F)ccc2c1N1CC(F)C1 [Example 5.96, 8-(2,3-difluoro-5-(trifluoromethyl)phenyl)-N-(2,3-dihydro-4H-benzo[b][1,4]oxazin-4-yl)-7-fluoro-4-(3-fluoroazetidin-1-yl)quinoline-3-carboxamide]
EC50 (D. immitis Slo-1): 100 to 1000 nM

Nc1c(Cl)cc(C(F)(F)F)cc1-c1cccc2c(N3CCOCC3)c(C(=O)NN3CCOc4ccccc43)cnc12 [Example 5.77, 8-[2-amino-3-chloro-5-(trifluoromethyl)phenyl]-N-(2,3-dihydro-1,4-benzoxazin-4-yl)-4-morpholino-quinoline-3-carboxamide]
EC50 (D. immitis Slo-1): < 100 nM and 100 to 1000 nM

CN(c1c(C(=O)NN2CCOc3ccccc32)cnc2c(-c3cc(F)cc(F)c3F)c(F)ccc12)C1CC(F)C1 (stereo not shown) [Example 5.87, N-(2,3-dihydro-1,4-benzoxazin-4-yl)-7-fluoro-4-[(3-fluorocyclobutyl)-methyl-amino]-8-(2,3,5-trifluorophenyl)quinoline-3-carboxamide]
EC50 [2]: < 0.1 µg/mL

O=C(NN1CCOc2ccccc21)c1cnc2c(-c3cc(C(F)(F)F)cc(F)c3F)c(F)ccc2c1C1CS(=O)(=O)C1 [Example 5.107, 8-(2,3-difluoro-5-(trifluoromethyl)phenyl)-N-(2,3-dihydro-4H-benzo[b][1,4]oxazin-4-yl)-4-(1,1-dioxidothietan-3-yl)-7-fluoroquinoline-3-carboxamide]
EC50 (D. immitis Slo-1): 100 to 1000 nM | EC50 [2]: < 0.1 µg/mL

O=C(NN1CCOc2ccccc21)c1cnc2c(-c3cc(F)cc(F)c3F)c(F)ccc2c1C1CSC1 [Example 5.85, N-(2,3-dihydro-1,4-benzoxazin-4-yl)-7-fluoro-4-(thietan-3-yl)-8-(2,3,5-trifluorophenyl)quinoline-3-carboxamide]
EC50 (D. immitis Slo-1): < 100 nM | EC50 [2]: < 0.1 µg/mL

O=C(NN1CCOc2ccccc21)c1cnc2c(-c3cc(F)cc(F)c3F)c(F)ccc2c1N1CC(F)C1 [Example 5.78, N-(2,3-dihydro-1,4-benzoxazin-4-yl)-7-fluoro-4-(3-fluoroazetidin-1-yl)-8-(2,3,5-trifluorophenyl)quinoline-3-carboxamide]
EC50 (D. immitis Slo-1): < 100 nM

O=C(NN1CCOc2ccccc21)c1cnc2c(-c3cc(F)cc(F)c3F)c(F)ccc2c1N1C[C@@H](F)[C@H](F)C1 [Example 5.92, 4-[(3R,4R)-3,4-difluoropyrrolidin-1-yl]-N-(2,3-dihydro-1,4-benzoxazin-4-yl)-7-fluoro-8-(2,3,5-trifluorophenyl)quinoline-3-carboxamide]
EC50 [1]: < 0.1 µg/mL | EC50 [2]: < 0.1 µg/mL

O=C(NN1CCOc2ccccc21)c1cnc2c(-c3cc(F)cc(F)c3F)c(F)ccc2c1C1CC(F)C1 (stereo not shown) [Example 5.101, N-(2,3-dihydro-4H-benzo[b][1,4]oxazin-4-yl)-7-fluoro-4-(3-fluorocyclobutyl)-8-(2,3,5-trifluorophenyl)quinoline-3-carboxamide]
EC50 (D. immitis Slo-1): < 100 nM

O=C(NN1CCOc2ccccc21)c1cnc2c(-c3cc(F)cc(F)c3F)c(F)ccc2c1C1CC(F)(F)C1 [Example 5.95, 4-(3,3-difluorocyclobutyl)-N-(2,3-dihydro-4H-benzo[b][1,4]oxazin-4-yl)-7-fluoro-8-(2,3,5-trifluorophenyl)quinoline-3-carboxamide]
EC50 (D. immitis Slo-1): < 100 nM

O=C(NN1CCOc2ccccc21)c1cnc2c(-c3cc(Cl)cc(F)c3F)c(F)ccc2c1N1CC(F)C1 [Example 5.79, 8-(5-chloro-2,3-difluoro-phenyl)-N-(2,3-dihydro-1,4-benzoxazin-4-yl)-7-fluoro-4-(3-fluoroazetidin-1-yl)quinoline-3-carboxamide]
EC50 (D. immitis Slo-1): 100 to 1000 nM | EC50 [2]: < 0.1 µg/mL

O=C(NN1CCOc2ccc(F)cc21)c1cnc2c(-c3cc(F)cc(F)c3F)c(F)ccc2c1N1CC(F)C1 [Example 5.98, 7-fluoro-N-(6-fluoro-2,3-dihydro-4H-benzo[b][1,4]oxazin-4-yl)-4-(3-fluoroazetidin-1-yl)-8-(2,3,5-trifluorophenyl)quinoline-3-carboxamide]
EC50 (D. immitis Slo-1): 100 to 1000 nM

N#Cc1c(F)cc(C(F)(F)F)cc1-c1cccc2c(N3CCOCC3)c(C(=O)NN3CCOc4ccccc43)cnc12 [Example 5.81, 8-[2-cyano-3-fluoro-5-(trifluoromethyl)phenyl]-N-(2,3-dihydro-1,4-benzoxazin-4-yl)-4-morpholino-quinoline-3-carboxamide]
EC50 (D. immitis Slo-1): 100 to 1000 nM

COC1CN(c2c(C(=O)NN3CCOc4ccccc43)cnc3c(-c4cc(F)cc(F)c4F)c(F)ccc23)C1 [Example 5.84, N-(2,3-dihydro-1,4-benzoxazin-4-yl)-7-fluoro-4-(3-methoxyazetidin-1-yl)-8-(2,3,5-trifluorophenyl)quinoline-3-carboxamide]
EC50 (D. immitis Slo-1): 100 to 1000 nM

O=C1CC(c2c(C(=O)NN3CCOc4ccccc43)cnc3c(-c4cc(F)cc(F)c4F)c(F)ccc23)C1 [Example 5.82, N-(2,3-dihydro-1,4-benzoxazin-4-yl)-7-fluoro-4-(3-oxocyclobutyl)-8-(2,3,5-trifluorophenyl)quinoline-3-carboxamide]
EC50 (D. immitis Slo-1): < 100 nM | EC50 [3]: < 0.1 µg/mL | EC50 [1]: < 0.1 µg/mL | EC50 [2]: < 0.1 µg/mL

O=C(NN1CCOc2ccccc21)c1cnc2c(-c3cc(F)cc(F)c3F)c(F)ccc2c1C1CS(=O)(=O)C1 [Example 5.86, N-(2,3-dihydro-1,4-benzoxazin-4-yl)-4-(1,1-dioxothietan-3-yl)-7-fluoro-8-(2,3,5-trifluorophenyl)quinoline-3-carboxamide]
EC50 (D. immitis Slo-1): 100 to 1000 nM

O=C(NN1CCOc2ccccc21)c1cnc2c(-c3cc(F)cc(S(F)(F)(F)(F)F)c3)c(F)ccc2c1C1CCOC1 (stereo not shown) [Example 5.102, N-(2,3-dihydro-4H-benzo[b][1,4]oxazin-4-yl)-7-fluoro-8-(3-fluoro-5-(pentafluoro-sulfanyl)phenyl)-4-(tetrahydrofuran-3-yl)quinoline-3-carboxamide]
EC50 (D. immitis Slo-1): < 100 nM

N#Cc1c(Cl)cc(C(F)(F)F)cc1-c1cccc2c(N3CCOCC3)c(C(=O)NN3CCOc4ccccc43)cnc12 [Example 5.76, 8-[3-chloro-2-cyano-5-(trifluoromethyl)phenyl]-N-(2,3-dihydro-1,4-benzoxazin-4-yl)-4-morpholino-quinoline-3-carboxamide]
EC50 (D. immitis Slo-1): 100 to 1000 nM

O=C(NN1CCOc2ccc(F)cc21)c1cnc2c(-c3cc(F)cc(F)c3F)c(F)ccc2c1N1CCOCC1 [Example 5.83, 7-fluoro-N-(6-fluoro-2,3-dihydro-1,4-benzoxazin-4-yl)-4-morpholino-8-(2,3,5-trifluorophenyl)quinoline-3-carboxamide]
EC50 (D. immitis Slo-1): < 100 nM | EC50 [3]: < 0.1 µg/mL | EC50 [1]: < 0.1 µg/mL | EC50 [2]: < 0.1 µg/mL

O=C(NN1CCOc2ccc(F)cc21)c1cnc2c(-c3cc(F)cc(F)c3F)c(F)ccc2c1C1CS(=O)(=O)C1 [Example 5.106, 4-(1,1-dioxidothietan-3-yl)-7-fluoro-N-(6-fluoro-2,3-dihydro-4H-benzo[b][1,4]oxazin-4-yl)-8-(2,3,5-trifluorophenyl)quinoline-3-carboxamide]
EC50 (D. immitis Slo-1): 100 to 1000 nM | EC50 [2]: < 0.1 µg/mL

O=C(NN1CCOc2ccccc21)c1cnc2c(-c3cc(C(F)(F)F)cc(F)c3Br)cccc2c1N1CCOCC1 [Example 5.80, 8-[2-bromo-3-fluoro-5-(trifluoromethyl)phenyl]-N-(2,3-dihydro-1,4-benzoxazin-4-yl)-4-morpholino-quinoline-3-carboxamide]
EC50 (D. immitis Slo-1): < 100 nM | EC50 [2]: < 0.1 µg/mL
